{"source": "patent US20180049996A1", "about": "“THERAPEUTIC AGENT FOR CHRONIC RESPIRATORY DISEASE AND COMPOSITION FOR INHIBITING CARDIAC FIBROSIS” (NIPPON HYPOX LABORATORIES INCORPORATED, priority 2015, published 2018)", "key": {"[1]": {"system": "Pulmonary Fibrosis Induced by Bleomycin", "assay": "Bronchoalveolar lavage (BAL) examination, cell numbers, pulmonary fibrosis induced by bleomycin", "format": "in vivo, male SD rats", "experimental": "Bleomycin is used to produce disease-model animals of interstitial pneumonia. The bleomycin and 2,3,5-trimethylhydroquinone-1-hexyl ether (HTHQ) as the hydroquinone derivative represented by the general formula (1) described above of the present invention were simultaneously administered to male SD rats of 10 week old after birth to examine the effect of the action. The test groups consisted of the control group to which sterile saline was administered; test group 1 to which bleomycin (7.5 mg/kg body weight) alone was administered; test group 2 to which bleomycin (7.5 mg/kg body weight) and HTHQ (50 mg/kg body weight/day) were administered in combination; and test group 3 to which bleomycin (7.5 mg/kg body weight) and HTHQ (200 mg/kg body weight/day) were administered in combination.\nIn test groups 1 to 3, bleomycin was orally administered in a single dose. In test groups 2 and 3, 2,3,5-trimethylhydroquinone-1-hexyl ether (HTHQ) was daily orally administered for 10 or 20 days starting from 24 h after the administration of bleomycin. In test group 1, olive oil, which was used as a solvent of HTHQ, was daily orally administered at 10 mL/kg/day starting from 24 h after the administration of bleomycin. The number of animals in each group was 16. 8 animals of each group were sacrificed on days 10 and 20 after the administration of bleomycin and measurement of body weight, lung autopsy, histopathologic examination of lungs and bronchoalveolar lavage examination were conducted.\nBronchoalveolar lavage (BAL) examination was conducted on the rats in the control group and the test groups. When interstitial pneumonia developed, the infiltration of inflammatory cells occurs and thus the total cell number in BAL fluid increases. The total cell numbers on day 10 after the administration of bleomycin were as follows: 2×10^5 cells in the control group, 9×10^5 cells in test group 1 (the bleomycin-single administration group), 6.5×10^5 cells in test group 2 (the low-dose HTHQ-administered group, 50 mg/kg body weight), and 10.5×10^5 cells in test group 3 (the high-dose HTHQ-administered group, 200 mg/kg body weight), and thus the effect of HTHQ administration was not found on day 10 after the administration of bleomycin.\nWhen interstitial pneumonia developed, the infiltration of alveolar macrophages to interstitial tissue occurs and thus the alveolar macrophage number in BAL fluid increases. The alveolar macrophage numbers on day 10 after the administration of bleomycin were as follows: 1.45×10^5 cells in the control group, 4.5×10^5 cells in test group 1 (the bleomycin-single administration group), 1.99×10^5 cells in test group 2 (the low-dose HTHQ-administered group), and 3.24×10^5 cells in test group 3 (the high-dose HTHQ-administered group), and thus the effect of HTHQ administration was not found on day 10 after the administration of bleomycin. However, on day 20 after the administration, while the alveolar macrophage number of the bleomycin-single administration group was 5.5×10^5 cells, the alveolar macrophage number of the low-dose HTHQ-administered group was 3×10^5 cells and the alveolar macrophage number of the high-dose HTHQ-administered group was decreased to 2×10^5 cells.\nWhen interstitial pneumonia developed, the infiltration of inflammatory cells of neutrophils to interstitial tissue occurs and thus the neutrophil number in BAL fluid increases. The neutrophil numbers on day 10 after the administration of bleomycin were as follows: 1.04×10^4 cells in the control group, 2.28×10^5 cells in test group 1 (the bleomycin-single administration group), 1.44×10^5 cells in test group 2 (the low-dose HTHQ-administered group), and 5.83×10^5 cells in test group 3 (the high-dose HTHQ-administered group), and thus the effect of HTHQ was not found on day 10 after the administration of bleomycin. […]"}, "[2]": {"system": "Myocardial Disorder Induced by Doxorubicin", "assay": "Relative weights of the hearts, myocardial disorder induced by doxorubicin", "format": "in vivo, female SD rats", "conditions": "Test group 2: doxorubicin 13 mg/kg + HTHQ 50 mg/kg oral", "text": "Doxorubicin is used to produce disease-model animals of cardiomyopathy. […] The recombinant human erythropoietin (rHuEPO) is mainly used in the treatment of renal anemia etc., and has the effect to protect myocardium. The test group 3 is used to confirm the presence or absence of the inhibitory effect brought about by combining HTHQ and rHuEPO on myocardial disorder. […] Recombinant human erythropoietin was daily administered to the rats in test group 3 starting from 3 days before the administration of doxorubicin by intravenous injection. The number of animals in each group was 16. 8 animals of each group were sacrificed after collecting blood on day 7 and 14 after the administration of doxorubicin, and the autopsy of the hearts, the calculation of the relative weights of the hearts, the histopathologic examination of the hearts and the hematological examination were conducted. Myocardium is hypertrophied by fibrosing and the weight of the myocardium increases, and the relative weight of the heart tends to increase. […] Also, there was no significant difference between the other groups on day 7 and 14 after the administration (p<0.05)."}, "[3]": {"conditions": "Test group 2: bleomycin + HTHQ 50 mg/kg/day oral, day 10"}, "[4]": {"conditions": "Test group 3: bleomycin + HTHQ 200 mg/kg/day oral, day 10"}, "[5]": {"conditions": "bleomycin + HTHQ 50 mg/kg/day oral (low-dose), day 20"}, "[6]": {"conditions": "bleomycin + HTHQ 200 mg/kg/day oral (high-dose), day 20"}}, "note": "Marks after values point to notes of the source that are not given here."}
{"smiles": "CCCCCCOc1cc(C)c(O)c(C)c1C", "note": "[HTHQ, 2,3,5-trimethylhydroquinone-1-hexyl ether]", "values": [{"measurement": "alveolar macrophage number in BAL fluid", "setting": "[1]; [3]", "result": "1.99×10^5 cells"}, {"measurement": "lymphocyte number in BAL fluid", "setting": "[1]; [3]", "result": "3.07×10^5 cells"}, {"measurement": "neutrophil number in BAL fluid", "setting": "[1]; [3]", "result": "1.44×10^5 cells"}, {"measurement": "total cell number in BAL fluid", "setting": "[1]; [3]", "result": "6.5×10^5 cells"}, {"measurement": "alveolar macrophage number in BAL fluid", "setting": "[1]; [4]", "result": "3.24×10^5 cells"}, {"measurement": "lymphocyte number in BAL fluid", "setting": "[1]; [4]", "result": "1.43×10^5 cells"}, {"measurement": "neutrophil number in BAL fluid", "setting": "[1]; [4]", "result": "5.83×10^5 cells"}, {"measurement": "total cell number in BAL fluid", "setting": "[1]; [4]", "result": "10.5×10^5 cells"}, {"measurement": "alveolar macrophage number in BAL fluid", "setting": "[1]; [5]", "result": "3×10^5 cells"}, {"measurement": "lymphocyte number in BAL fluid", "setting": "[1]; [5]", "result": "0.53×10^5 cells"}, {"measurement": "neutrophil number in BAL fluid", "setting": "[1]; [5]", "result": "4.34×10^5 cells"}, {"measurement": "total cell number in BAL fluid", "setting": "[1]; [5]", "result": "7.9×10^5 cells"}, {"measurement": "alveolar macrophage number in BAL fluid", "setting": "[1]; [6]", "result": "2×10^5 cells"}, {"measurement": "lymphocyte number in BAL fluid", "setting": "[1]; [6]", "result": "0.3×10^5 cells"}, {"measurement": "neutrophil number in BAL fluid", "setting": "[1]; [6]", "result": "1.49×10^5 cells"}, {"measurement": "total cell number in BAL fluid", "setting": "[1]; [6]", "result": "3.8×10^5 cells"}, {"measurement": "relative weight of the heart", "setting": "[2]; Day 7 after administration, p<0.05 vs Test group 1", "result": "0.4208 ± 0.0409^a %"}, {"measurement": "relative weight of the heart", "setting": "[2]; Day 14 after administration", "result": "0.3658 ± 0.0357", "unit": "%"}]}
